Legend:
[1] = tested on: VRE clinical isolate C27569; assay type: cell-based, E. faecium
[2] = tested on: VRE clinical isolate C28535; assay type: cell-based, E. faecalis
[3] = tested on: VRE clinical isolate D1; experiment: organism not typed; assay type: cell-based, E. faecium
[4] = tested on: VRE clinical isolate SL152; assay type: cell-based, E. faecium
[5] = tested on: VRE clinical isolate S234; experiment: organism not typed; assay type: cell-based, E. faecalis
[6] = tested on: VRE clinical isolate S344; assay type: cell-based, E. faecium
[7] = tested on: VRE clinical isolate C21667; assay type: cell-based, E. faecalis
[8] = tested on: VRE clinical isolate S557; experiment: organism not typed; assay type: cell-based, E. faecium

Measured: MIC

Cc1cc(=O)n(C)c2c3c4c(cc12)c(C)cc(=O)n4CO3 [DNM, deoxynybomycin]
0.25 µg/mL: all assays above

CCn1c(=O)cc(C)c2cc3c(C)cc(=O)n4c3c(c21)OC4 [DNM-2]
0.25 µg/mL: [1] | [2]
